Test results taken from paper PMC7543951 (Molecular cell, 2020).

Molecular target: T1, ROR1 pseudokinase domain (Homo sapiens, UniProt Q01973)
T1 sequence (Q01973 457-752): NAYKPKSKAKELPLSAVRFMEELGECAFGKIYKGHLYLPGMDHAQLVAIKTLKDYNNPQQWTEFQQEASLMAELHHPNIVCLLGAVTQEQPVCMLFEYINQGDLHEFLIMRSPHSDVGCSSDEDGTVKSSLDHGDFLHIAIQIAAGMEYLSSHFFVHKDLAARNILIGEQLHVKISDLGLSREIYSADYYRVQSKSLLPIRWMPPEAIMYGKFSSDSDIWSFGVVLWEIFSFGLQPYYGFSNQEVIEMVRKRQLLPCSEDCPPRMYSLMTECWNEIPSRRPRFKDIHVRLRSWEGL
Test: DSF concentration series
Format: binding

IC50: ~1000 nM
Compound: Cc1ccc(C(=O)Nc2ccc(CN3CCN(C)CC3)c(C(F)(F)F)c2)cc1C#Cc1cnc2[nH]ncc2c1 [GZD824]
